Some results are limits rather than exact numbers.

In one test the target is T1, human recombinant HDAC1 (Homo sapiens, UniProt Q13547).
T1 construct: purchased Enzo Life Science BML-SE456
The experiment in a line: HDAC1 enzyme activity inhibition assay (in vitro, fluorimetric). The conditions noted are these: human recombinant HDAC1, fluorimetric kit, 30° C. 60 minutes. The format is biochemical. A digest of the protocol:
(§1)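 IC50 values derive from fluorescence (Ex 360, Em 460) after developer treatment (30 min) of reactions of recombinant human HDAC1 or HDAC6 with 10 μM Fluor de Lys-SIRT1 substrate (60 min, 30 °C). Compounds were serially diluted 5-fold; 0.3 μg enzyme was used for HDAC1, with HDAC6 tested identically.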

The target in a further test is T2, human recombinant HDAC6 (Homo sapiens, UniProt Q9UBN7).
T2 construct: purchased Calbiochem 382180
T2 sequence (Q9UBN7 1-1215): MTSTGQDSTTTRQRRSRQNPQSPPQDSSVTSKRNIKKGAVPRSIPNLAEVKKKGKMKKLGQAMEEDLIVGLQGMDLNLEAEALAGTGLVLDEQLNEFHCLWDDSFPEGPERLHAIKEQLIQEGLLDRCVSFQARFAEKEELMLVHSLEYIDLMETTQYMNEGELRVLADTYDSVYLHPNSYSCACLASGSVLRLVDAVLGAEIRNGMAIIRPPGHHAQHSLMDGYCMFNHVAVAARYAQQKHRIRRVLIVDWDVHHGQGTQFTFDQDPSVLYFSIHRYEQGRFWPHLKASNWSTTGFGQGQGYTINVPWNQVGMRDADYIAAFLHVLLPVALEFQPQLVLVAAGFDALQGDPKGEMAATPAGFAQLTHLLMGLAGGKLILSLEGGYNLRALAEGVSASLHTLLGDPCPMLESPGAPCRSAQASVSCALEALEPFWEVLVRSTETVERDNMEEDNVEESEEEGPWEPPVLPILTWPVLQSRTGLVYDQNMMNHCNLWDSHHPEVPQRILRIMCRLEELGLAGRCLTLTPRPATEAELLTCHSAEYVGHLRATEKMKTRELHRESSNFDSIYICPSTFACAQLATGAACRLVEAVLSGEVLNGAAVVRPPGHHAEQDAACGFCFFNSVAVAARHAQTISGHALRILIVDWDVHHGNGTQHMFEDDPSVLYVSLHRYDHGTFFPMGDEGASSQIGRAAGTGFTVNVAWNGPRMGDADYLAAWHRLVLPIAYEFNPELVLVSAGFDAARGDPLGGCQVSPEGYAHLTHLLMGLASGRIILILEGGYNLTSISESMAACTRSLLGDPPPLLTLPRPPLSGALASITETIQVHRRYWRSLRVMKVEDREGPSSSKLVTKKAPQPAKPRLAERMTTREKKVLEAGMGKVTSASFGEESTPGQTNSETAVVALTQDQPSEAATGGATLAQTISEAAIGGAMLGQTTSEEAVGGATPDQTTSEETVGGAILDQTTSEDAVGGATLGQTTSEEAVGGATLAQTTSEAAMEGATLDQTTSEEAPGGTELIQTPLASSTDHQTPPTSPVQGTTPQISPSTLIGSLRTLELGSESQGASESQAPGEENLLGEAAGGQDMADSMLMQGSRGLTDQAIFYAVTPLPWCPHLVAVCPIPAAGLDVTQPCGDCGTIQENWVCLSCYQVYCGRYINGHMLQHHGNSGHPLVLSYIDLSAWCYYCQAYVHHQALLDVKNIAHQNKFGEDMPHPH
The experiment in a line: HDAC6 enzyme activity inhibition assay (in vitro, fluorimetric). In kind it is biochemical. The conditions noted are these: for HDAC6 selectivity (fold): HDAC6 selectivity over HDAC1; for IC50: human recombinant HDAC6, fluorimetric kit, same protocol as HDAC1. A digest of the protocol:
as §1

T1 sequence (Q13547 whole entry): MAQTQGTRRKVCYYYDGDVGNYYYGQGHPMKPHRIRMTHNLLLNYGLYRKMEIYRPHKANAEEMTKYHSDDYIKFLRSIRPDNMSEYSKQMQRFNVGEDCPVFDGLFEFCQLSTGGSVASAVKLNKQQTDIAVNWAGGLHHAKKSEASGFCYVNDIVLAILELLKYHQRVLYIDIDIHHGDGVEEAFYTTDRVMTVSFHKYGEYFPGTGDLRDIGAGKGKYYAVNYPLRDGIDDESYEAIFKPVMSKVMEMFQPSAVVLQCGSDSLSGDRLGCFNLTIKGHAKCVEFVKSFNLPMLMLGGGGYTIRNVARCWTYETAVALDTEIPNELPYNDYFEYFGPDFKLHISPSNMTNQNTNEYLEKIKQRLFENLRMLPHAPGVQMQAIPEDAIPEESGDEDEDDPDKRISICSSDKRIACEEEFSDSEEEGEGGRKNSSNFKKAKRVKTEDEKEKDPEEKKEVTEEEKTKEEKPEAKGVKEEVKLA

On to `CC(C)NC(=O)N1[C@H](C)CN(Cc2ccc(C(=O)NO)cc2)C[C@@H]1C` [Compound 098, (2S,6R)-4-(4-(hydroxycarbamoyl)benzyl)-N-isopropyl-2,6-dimethylpiperazine-1-carboxamide], for which the IC50 (usually the concentration that inhibits the measured activity by half) at human recombinant HDAC1 was above 10 µM. Moreover, at human recombinant HDAC6, the “HDAC6 selectivity (fold)” value is above 133 fold and the IC50 was 0.075 µM.
For `CC(C)C(=O)N1[C@H](C)CN(Cc2ccc(C(=O)NO)cc2)C[C@@H]1C` [Compound 296, N-hydroxy-4-(((3R,5S)-4-isobutyryl-3,5-dimethylpiperazin-1-yl)methyl)benzamide], the concentration for half-maximal inhibition (IC50) at human recombinant HDAC1 turned out to be 6.9 µM; at human recombinant HDAC6, 0.204 µM. In addition, on human recombinant HDAC6, the “HDAC6 selectivity (fold)” value was determined as 34 fold.
Consider `C[C@@H]1CN(Cc2ccc(C(=O)NO)cc2)C[C@H](C)N1Cc1ccco1` [Compound 145, 4-(((3R,5S)-4-(furan-2-ylmethyl)-3,5-dimethylpiperazin-1-yl)methyl)-N-hydroxybenzamide], for which the IC50 turned out to be 17.1 µM at human recombinant HDAC1 and 0.033 µM at human recombinant HDAC6. Also, at human recombinant HDAC6, the “HDAC6 selectivity (fold)” value was found to be 519 fold.
Taken in the same sequence, the figures for `C[C@@H]1CN(Cc2ccc(C(=O)NO)cc2)C[C@H](C)N1C(=O)c1cccs1` [Compound 126, 4-(((3R,5S)-3,5-dimethyl-4-(thiophene-2-carbonyl)piperazin-1-yl)methyl)-N-hydroxybenzamide] were 6.1 µM, 0.004 µM and 1525 fold.
Turning to `CC(=O)N1CC=C(c2ccccc2CN2[C@H](C)CN(Cc3ccc(C(=O)NO)cc3)C[C@@H]2C)CC1` [Compound 482, 4-(((3R,5S)-4-(2-(1-acetyl-1,2,3,6-tetrahydropyridin-4-yl)benzyl)-3,5-dimethylpiperazin-1-yl)methyl)-N-hydroxybenzamide], at human recombinant HDAC1, the IC50 is 12.5 µM. At human recombinant HDAC6, the “HDAC6 selectivity (fold)” value is reported as 121 fold and the half-inhibitory concentration (IC50) was 0.103 µM.
For `C[C@@H]1CN(Cc2ccc(C(=O)NO)cc2)C[C@H](C)N1Cc1cccc(CN2CCN(C)CC2)c1` [Compound 428, 4-(((3R,5S)-3,5-dimethyl-4-(3-((4-methylpiperazin-1-yl)methyl)benzyl)piperazin-1-yl)methyl)-N-hydroxybenzamide], the concentration for half-maximal inhibition (IC50) at human recombinant HDAC1 amounted to 4.7 µM. At human recombinant HDAC6, the “HDAC6 selectivity (fold)” value was found to be 41 fold and the 50% inhibitory concentration (IC50) is 0.117 µM.
In the case of `C[C@@H]1CN(Cc2ccc(/C=C/C(=O)NO)cc2)C[C@H](C)N1C(=O)Cc1ccccc1` [Compound 323, (E)-3-(4-(((3R,5S)-3,5-dimethyl-4-(2-phenylacetyl)piperazin-1-yl)methyl)phenyl)-N-hydroxyacrylamide], the IC50 at human recombinant HDAC1 is above 10 µM. At human recombinant HDAC6, the “HDAC6 selectivity (fold)” value was above 11 fold and the 50% inhibitory concentration (IC50) was found to be 0.921 µM.
For `CCN1CCN(Cc2cccc(C(=O)N3[C@H](C)CN(Cc4ccc(C(=O)NO)cc4)C[C@@H]3C)c2)CC1` [Compound 433, 4-(((3R,5S)-4-(3-((4-ethylpiperazin-1-yl)methyl)benzoyl)-3,5-dimethylpiperazin-1-yl)methyl)-N-hydroxybenzamide], the half-maximal inhibitory concentration (IC50) on human recombinant HDAC1 was determined as 3.5 µM; on human recombinant HDAC6 it was 0.049 µM. Moreover, at human recombinant HDAC6, the “HDAC6 selectivity (fold)” value stood at 71 fold.
Consider `COc1cccc(NC(=O)N2C[C@@H](C)N(Cc3ccc(C(=O)NO)cc3)[C@@H](C)C2)c1` [Compound 164, (3R,5S)-4-(4-(hydroxycarbamoyl)benzyl)-N-(3-methoxyphenyl)-3,5-dimethylpiperazine-1-carboxamide], for which the IC50 on human recombinant HDAC1 amounted to 0.5 µM. In addition, on human recombinant HDAC6, the “HDAC6 selectivity (fold)” value was determined as 4 fold and the IC50 worked out at 0.135 µM.
Taken in the same sequence, the figures for `C[C@@H]1CN(Cc2ccc(C(=O)NO)cc2)C[C@H](C)N1Cc1ccccc1C1=CCN(S(C)(=O)=O)CC1` [Compound 481, 4-(((3R,5S)-3,5-dimethyl-4-(2-(1-(methylsulfonyl)-1,2,3,6-tetrahydropyridin-4-yl)benzyl)piperazin-1-yl)methyl)-N-hydroxybenzamide] were 16.2 µM, 153 fold and 0.106 µM.
On the same counts, the results for `C[C@@H]1CN(Cc2ccc(C(=O)NO)cc2)C[C@H](C)N1Cc1cccc(-c2ccco2)c1` [Compound 342, 4-(((3R,5S)-4-(3-(furan-2-yl)benzyl)-3,5-dimethylpiperazin-1-yl)methyl)-N-hydroxybenzamide] are 8.7 µM, 456 fold and 0.019 µM.
With `C[C@@H]1CN(Cc2ccc(C(=O)NO)cc2)C[C@H](C)N1Cc1ccccc1-c1ccoc1` [Compound 328, 4-(((3R,5S)-4-(2-(furan-3-yl)benzyl)-3,5-dimethylpiperazin-1-yl)methyl)-N-hydroxybenzamide], at human recombinant HDAC1, the IC50 is 18.7 µM. Besides, on human recombinant HDAC6, the “HDAC6 selectivity (fold)” value worked out at 183 fold and the half-maximal inhibitory concentration (IC50) is 0.102 µM.
In the case of `CCN(CC)Cc1cccc(CN2C[C@@H](C)N(Cc3ccc(C(=O)NO)cc3)[C@@H](C)C2)c1` [Compound 478, 4-(((2S,6R)-4-(3-((diethylamino)methyl)benzyl)-2,6-dimethylpiperazin-1-yl)methyl)-N-hydroxybenzamide], the IC50 on human recombinant HDAC1 was determined as 6.57 µM; on human recombinant HDAC6, 0.64 µM. Further, the “HDAC6 selectivity (fold)” value on human recombinant HDAC6 is recorded as 10 fold.
Taken in the same sequence, the figures for `C[C@@H]1CN(Cc2ccc(C(=O)NO)cc2)C[C@H](C)N1Cc1ccccc1-c1ccco1` [Compound 327, 4-(((3R,5S)-4-(2-(furan-2-yl)benzyl)-3,5-dimethylpiperazin-1-yl)methyl)-N-hydroxybenzamide] were above 10 µM, 0.235 µM and above 43 fold.
As for `C[C@@H]1CN(Cc2ccc(N(C)C)cc2)C[C@H](C)N1Cc1ccc(C(=O)NO)cc1` [Compound 299, 4-(((2S,6R)-4-(4-(dimethylamino)benzyl)-2,6-dimethylpiperazin-1-yl)methyl)-N-hydroxybenzamide], the 50% inhibitory concentration (IC50) on human recombinant HDAC1 was 1.2 µM. In addition, at human recombinant HDAC6, the “HDAC6 selectivity (fold)” value is 5 fold and the half-maximal inhibitory concentration (IC50) turned out to be 0.243 µM.
Turning to `CCN(CC)Cc1cccc(CN2[C@H](C)CN(Cc3ccc(C(=O)NO)cc3)C[C@@H]2C)c1` [Compound 426, 4-(((3R,5S)-4-(3-((diethylamino)methyl)benzyl)-3,5-dimethylpiperazin-1-yl)methyl)-N-hydroxybenzamide], the concentration for half-maximal inhibition (IC50) at human recombinant HDAC1 is 5 µM. In addition, on human recombinant HDAC6, the “HDAC6 selectivity (fold)” value came out at 35 fold and the IC50 amounted to 0.142 µM.
On the same counts, the results for `C[C@@H]1CN(C(=O)Nc2cccc(-n3cccc3)c2)C[C@H](C)N1Cc1ccc(C(=O)NO)cc1` [Compound 186, (3R,5S)-N-(3-(1 H-pyrrol-1-yl)phenyl)-4-(4-(hydroxycarbamoyl)benzyl)-3,5-dimethylpiperazine-1-carboxamide] are 0.3 µM, 65 fold and 0.005 µM.
Taken in the same sequence, the figures for `C[C@@H]1CN(Cc2ccc(S(C)(=O)=O)cc2)C[C@H](C)N1Cc1ccc(C(=O)NO)cc1` [Compound 300, 4-(((2S,6R)-2,6-dimethyl-4-(4-(methylsulfonyl)benzyl)piperazin-1-yl)methyl)-N-hydroxybenzamide] were 3.7 µM, 7 fold and 0.53 µM.
On the same counts, the results for `C[C@@H]1CN(Cc2ccc(C(=O)NO)nc2)C[C@H](C)N1Cc1ccccc1` [Compound 812, 5-(((3R,5S)-4-benzyl-3,5-dimethylpiperazin-1-yl)methyl)-N-hydroxypicolinamide] are above 10 µM, above 6 fold and 1.54 µM.
Turning to `CC(CN(C)Cc1ccccc1)NCc1cccc(C(=O)N2[C@H](C)CN(Cc3ccc(C(=O)NO)cc3)C[C@@H]2C)c1` (stereo partly drawn) [Compound 441, 4-(((3R,5S)-4-(3-(((1-(benzyl(methyl)amino)propan-2-yl)amino)methyl)benzoyl)-3,5-dimethylpiperazin-1-yl)methyl)-N-hydroxybenzamide], the half-maximal inhibitory concentration (IC50) on human recombinant HDAC1 came to 5.4 µM. Moreover, on human recombinant HDAC6, the “HDAC6 selectivity (fold)” value worked out at 154 fold and the half-maximal inhibitory concentration (IC50) is 0.035 µM.

These data come from patent US10287255B2, “Compounds as histone deacetylase 6 inhibitors and pharmaceutical compositions comprising the same” (CHONG KUN DANG PHARMACEUTICAL CORP., priority 2014, dated 2019).
